Drawing on US8198456B2, “Dihydropyridine derivatives as useful as protein kinase inhibitors” (Bayer Intellectual Property GmbH, priority 2006, dated 2012), this text covers IC50 for 29 compounds.

Structures can show the parent of a compound that is named as a salt.

The test deals with T1, recombinant human c-MET kinase enzyme domain (Homo sapiens, UniProt P08581).
T1 construct: Recombinant c-Met kinase domain (amino acids 960-1390); His (N); made in house; host or cells: baculovirus expression system (insect cells; SF21 is named only for the alternative format)
T1 sequence (P08581 960-1390): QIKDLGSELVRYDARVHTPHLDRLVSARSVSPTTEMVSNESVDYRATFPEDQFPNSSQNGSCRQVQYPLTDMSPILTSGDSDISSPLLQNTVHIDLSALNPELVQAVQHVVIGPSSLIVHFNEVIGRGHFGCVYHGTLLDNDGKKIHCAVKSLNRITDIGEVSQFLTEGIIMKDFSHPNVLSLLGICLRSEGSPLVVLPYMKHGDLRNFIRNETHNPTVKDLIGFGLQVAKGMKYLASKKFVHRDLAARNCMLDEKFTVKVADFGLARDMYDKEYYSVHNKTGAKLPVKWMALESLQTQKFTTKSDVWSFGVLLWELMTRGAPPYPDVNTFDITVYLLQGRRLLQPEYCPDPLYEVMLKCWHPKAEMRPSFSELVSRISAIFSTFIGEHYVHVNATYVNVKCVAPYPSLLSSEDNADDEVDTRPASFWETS
The test can be described thus: c-MET receptor tyrosine kinase Homogeneous Time Resolved Fluorescence assay (HTRF). It is filed as biochemical. The following applies: Biological Example 1 and/or Biological Example 2. The source says: Recombinant c-Met kinase domain (amino acids 960-1390) was produced in a baculovirus expression vector as an N-terminal His-tagged fusion protein and purified on a NiNTA column. The resulting purified enzyme was then used in the following c-Met Homogeneous Time Resolved Fluorescence assay (HTRF) to find compounds of the invention and to perform initial activity determinations. Specifically, this assay measures the ability of compounds of the invention to inhibit the phosphorylation of a randomly synthesized, biotinylated heterocopolymeric polypeptide composed of glutamic acid and tyrosine, with an average length of 100 aa. The assay analyzes the amount of phosphorylated polypeptide produced.
The enzymatic phosphorylation of the biotinylated heterocopolymeric polypeptide was performed in a black 384-well plate at ambient temperature in a reaction mixture containing 50 mM HEPES (pH 7.4), 5 mM MgCl2, 5 mM MnCl2, 0.01% Tween-20, and 2 mM DTT, […] recombinant human c-MET kinase enzyme domain, 37 nM biotinylated heterocopolymeric polypeptide composed of glutamic acid and tyrosine, 20 μM ATP, 1% DMSO in the absence or presence of a compound of the invention. The reaction was stopped after a 20-minute incubation by the addition of 80 mM EDTA.
The formation of phosphorylated heterocopolymeric, biotinylated polypeptide was quantified with the HTRF assay technology using an anti-phosphotyrosine antibody, PT66, conjugated to europium cryptate, mixed with a streptavidin-XL665 conjugate. Reduced or inhibited phosphorylation of the heterocopolymeric, biotinylated polypeptide prevents the anti-phosphotyrosine antibody from binding to the peptide, resulting in a loss of energy transfer to the streptavidin-XL665 conjugate.
Following the 384-well enzymatic phosphorylation reaction outlined above, the detection of phosphorylated heterocopolymeric, biotinylated polypeptide was performed by dilution of the stopped reaction mixture 2-fold with 50 mM HEPES (pH 7.0), 500 mM KF, 0.1% BSA, streptavidin-XL665 (20 nM), and anti-phosphotyrosine antibody PT66-crypate conjugate (6.4 ng/well) and incubation for four hours at ambient temperature. Plates were read in an Envision plate reader (PerkinElmer Life and Analytical Sciences, Inc., MA) simultaneously at 620 nm and 665 nm to obtain signal ratios of 665 nm/620 nm. Results of energy transfer were expressed as signal ratios of 665 nm/620 nm. Negative controls were samples without recombinant c-MET or c-MET treated with 100 mM EDTA.
For determination of IC50 values of particular compounds of the invention, eight serially diluted compound concentrations (at 1:3.16 dilution) were used in the assay. Controls without a compound of the invention or with a reference compound were run in parallel in the same assay plate.
(Time-resolved FRET reads energy transfer from a long-lived donor to a nearby acceptor.)
Take `CC1=C(C#N)C(c2ccc3[nH]ncc3c2)C(C#N)=C(C)N1CCO` [compound 292, 1,4-dihydro-1-(2-hydroxyethyl)-4-(1H-indazol-5-yl)-2,6-dimethyl-3,5-pyridinedicarbonitrile]: the IC50 (as a rule, the midpoint of a concentration-inhibition curve) was < 100 nM. For the compound `CC1=C(C#N)C(c2ccc3[nH]nc(-c4ncc[nH]4)c3c2)C(C#N)=C(C)N1` [compound 170, 1,4-dihydro-4-[3-(1H-imidazol-2-yl)-1H-indazol-5-yl]-2,6-dimethyl-3,5-pyridinedicarbonitrile], the IC50 was < 100 nM. In the case of `CC1=C(C#N)C(c2ccc3[nH]nc(NCC4CCNCC4)c3c2)C(C#N)=C(C)N1` [compound 133, 1,4-dihydro-2,6-dimethyl-4-[3-[(4-piperidinylmethyl)amino]-1H-indazol-5-yl]-3,5-pyridinedicarbonitrile], the IC50 was < 100 nM. For `CC1=C(C#N)C(c2ccc3[nH]nc(N)c3c2)C(C#N)=C(c2ccccc2)N1` (centres unmarked) [compound 259, 4-(3-amino-1H-indazol-5-yl)-1,4-dihydro-2-methyl-6-phenyl-3,5-pyridinedicarbonitrile] the value was < 100 nM; for `CC1=C(C#N)C(c2ccc3[nH]nc(C(F)(F)F)c3c2)C(C#N)=C(C)N1` [compound 169, 1,4-dihydro-2,6-dimethyl-4-[3-(trifluoromethyl)-1H-indazol-5-yl]-3,5-pyridinedicarbonitrile], 500 to 2500 nM.

As to `COC(=O)c1cccc(C2C(C#N)=C(C)NC(c3ccccc3)=C2C#N)c1` (centres unmarked) [compound 219, 3-(3,5-dicyano-1,4-dihydro-2-methyl-6-phenyl-4-pyridinyl)-benzoic acid, methyl ester], the IC50 was < 100 nM. To `CNC(=O)c1cccc(C2C(C#N)=C(C)NC(C)=C2C#N)c1` [compound 12, 3-(3,5-dicyano-2,6-dimethyl-1,4-dihydro-pyridin-4-yl)-N-methyl-benzamide, TFA salt] belongs 500 to 2500 nM; to `CC1=C(C#N)C(c2ccc3[nH]nc(-c4ccc(N5CCN(C)CC5)nc4)c3c2)C(C#N)=C(C)N1` [compound 137, 1,4-dihydro-2,6-dimethyl-4-[3-[6-(4-methyl-1-piperazinyl)-3-pyridinyl]-1H-indazol-5-yl]-3,5-pyridinedicarbonitrile], < 100 nM.

As for `CO/N=C/c1n[nH]c2ccc(C3C(C#N)=C(C)NC(C)=C3C#N)cc12` [compound 159, 1,4-dihydro-4-[3-[(E)-(methoxyimino)methyl]-1H-indazol-5-yl]-2,6-dimethyl-3,5-pyridinedicarbonitrile], the IC50 is < 100 nM.

For `CON(C)C(=O)c1n[nH]c2ccc(C3C(C#N)=C(C)NC(C)=C3C#N)cc12` [compound 143, 5-(3,5-dicyano-1,4-dihydro-2,6-dimethyl-4-pyridinyl)-N-methoxy-N-methyl-1H-indazole-3-carboxamide], the IC50 is < 100 nM.

Regarding `CC1=C(C#N)C(c2ccc3[nH]nc(CNc4cccnc4)c3c2)C(C#N)=C(C)N1` [compound 91, 1,4-dihydro-2,6-dimethyl-4-[3-[(3-pyridinylamino)methyl]-1H-indazol-5-yl]-3,5-pyridinedicarbonitrile], the IC50 is < 100 nM. `CC1=C(C#N)C(c2cccc(C(=O)Nc3ccc(C)cn3)c2)C(C#N)=C(C)N1` [compound 51, 3-(3,5-dicyano-1,4-dihydro-2,6-dimethyl-4-pyridinyl)-N-(5-methyl-2-pyridinyl)-benzamide]: the IC50 is 100 to 500 nM. For the compound `CCOCCCNC(=O)c1cccc(C2C(C#N)=C(C)NC(C)=C2C#N)c1` [compound 45, 3-(3,5-dicyano-1,4-dihydro-2,6-dimethyl-4-pyridinyl)-N-(3-ethoxypropyl)-benzamide], the IC50 fell in the range of 500 to 2500 nM. To `CC1=C(C#N)C(c2ccc3[nH]nc(C(=O)NCCN4CCCC4)c3c2)C(C#N)=C(C)N1` [compound 124, 5-(3,5-dicyano-1,4-dihydro-2,6-dimethyl-4-pyridinyl)-N-[2-(1-pyrrolidinyl)ethyl]-1H-indazole-3-carboxamide] belongs < 100 nM; to `CC1=C(C#N)C(c2ccc3[nH]nc(CN4CCN(CCO)CC4)c3c2)C(C#N)=C(C)N1` [compound 166, 1,4-dihydro-4-[3-[[4-(2-hydroxyethyl)-1-piperazinyl]methyl]-1H-indazol-5-yl]-2,6-dimethyl-3,5-pyridinedicarbonitrile], < 100 nM. For `CC1=C(C#N)C(c2ccc3[nH]nc(N)c3c2)C(C#N)=C(C)N1Cc1ccccc1` [compound 293, 4-(3-amino-1H-indazol-5-yl)-1,4-dihydro-2,6-dimethyl-1-(phenylmethyl)-3,5-pyridinedicarbonitrile] the value was < 100 nM. For `CC1=C(C#N)C(c2ccc3[nH]nc(C(=O)N(C)C)c3c2)C(C#N)=C(C)N1` [114.1, 5-(3,5-dicyano-2,6-dimethyl-1,4-dihydro-pyridin-4-yl)-1H-indazole-3-carboxylic acid dimethylamide, TFA salt] the value was < 100 nM; for `CC1=C(C#N)C(c2ccc3[nH]nc(-c4ccc(N5CCN(CCO)CC5)cc4)c3c2)C(C#N)=C(C)N1` [compound 152, 1,4-dihydro-4-[3-[4-[4-(2-hydroxyethyl)-1-piperazinyl]phenyl]-1H-indazol-5-yl]-2,6-dimethyl-3,5-pyridinedicarbonitrile], < 100 nM. Take `COC(=O)c1cccc(C2C(C#N)=C(C)NC(C3CCCN(C(N)=O)C3)=C2C#N)c1` (centres unmarked) [compound 230, 3-[2-[1-(aminocarbonyl)-3-piperidinyl]-3,5-dicyano-1,4-dihydro-6-methyl-4-pyridinyl]-benzoic acid, methyl ester]: the IC50 is 100 to 500 nM. For the compound `COC(=O)c1cccc(C2C(C#N)=C(C)NC(c3cccc(N)c3)=C2C#N)c1` (centres unmarked) [compound 235, 3-[2-(3-aminophenyl)-3,5-dicyano-1,4-dihydro-6-methyl-4-pyridinyl]-benzoic acid, methyl ester], the IC50 was in the range of 100 to 500 nM.

`CC1=C(C#N)C(c2ccc3[nH]nc(-c4cccs4)c3c2)C(C#N)=C(C)N1` [compound 178, 1,4-dihydro-2,6-dimethyl-4-[3-(2-thienyl)-1H-indazol-5-yl]-3,5-pyridinedicarbonitrile]: the IC50 is < 100 nM.

In the case of `CC1=C(C#N)C(c2cccc(C(=O)Nc3cccc(N)n3)c2)C(C#N)=C(C)N1` [compound 68, N-(6-amino-2-pyridinyl)-3-(3,5-dicyano-1,4-dihydro-2,6-dimethyl-4-pyridinyl)-benzamide], the IC50 lay within 100 to 500 nM. In the case of `CCOC(=O)C1=C(C#N)C(c2ccc3[nH]ncc3c2)C(C#N)=C(C)N1` (centres unmarked) [compound 268, 3,5-dicyano-1,4-dihydro-4-(1H-indazol-5-yl)-6-methyl-2-pyridinecarboxylic acid ethyl ester], the IC50 was < 100 nM.

As to `CCOC(=O)N1CCN(Cc2n[nH]c3ccc(C4C(C#N)=C(C)NC(C)=C4C#N)cc23)CC1` [167.1, 4-[5-(3,5-Dicyano-2,6-dimethyl-1,4-dihydro-pyridin-4-yl)-1H-indazol-3-ylmethyl]-piperazine-1-carboxylic acid ethyl ester, TFA salt], the IC50 is < 100 nM. On to `CC1=C(C#N)C(c2ccc3[nH]nc(C(=O)NCCCN(C)C)c3c2)C(C#N)=C(C)N1` [106.1, 5-(3,5-dicyano-2,6-dimethyl-1,4-dihydro-pyridin-4-yl)-1H-indazole-3-carboxylic acid (3-dimethylamino-propyl)-amide, TFA salt], for which the half-inhibitory concentration (IC50) was < 100 nM. On to `COC(=O)c1cccc(C2C(C#N)=C(C)NC(c3ccc(N)cc3)=C2C#N)c1` (centres unmarked) [compound 236, 3-[2-(4-aminophenyl)-3,5-dicyano-1,4-dihydro-6-methyl-4-pyridinyl]-benzoic acid, methyl ester], for which the IC50 fell in the range of 100 to 500 nM. To `CC1=C(C#N)C(c2ccc3[nH]nc(NCc4cccnc4)c3c2)C(C#N)=C(C)N1` [compound 120, 1,4-dihydro-2,6-dimethyl-4-[3-[(3-pyridinylmethyl)amino]-1H-indazol-5-yl]-3,5-pyridinedicarbonitrile] belongs < 100 nM.

Take `CC1=C(C#N)C(c2ccc3[nH]ncc3c2)C(C#N)=C(c2ccc(NCCN3CCOCC3)nc2)N1` (centres unmarked) [compound 274, 1,4-dihydro-4-(1H-indazol-5-yl)-6-methyl-6′-[[2-(4-morpholinyl)ethyl]amino]-[2,3′-bipyridine]-3,5-dicarbonitrile]: the IC50 is < 100 nM.

In the case of `CC1=C(C#N)C(c2cccc(C(N)=O)c2)C(C#N)=C(C)N1` [compound 17, 3-(3,5-dicyano-1,4-dihydro-2,6-dimethyl-4-pyridinyl)-benzamide], the IC50 lay within 500 to 2500 nM.
